Assay results: patent publication US20060069132A1, “Azolecarboxamide herbicides” (priority 2004, published 2006)

Assays:
johnsongrass = assay: Test C pre-/postemergence herbicide test; format: in vivo, Sorghum halepense; conditions: for Johnsongrass plant response rating: 500 g ai/ha
Outline: (§1)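 Emerged plants at the 1- to 4-leaf stage (2–18 cm), or freshly planted seeds, received test chemicals in a non-phytotoxic solvent mixture with surfactant. Response was visually scored against controls after 12 to 14 days in the greenhouse, on a 0 (no effect) to 100 (complete control) scale.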

[1] = tested on: common (oilseed) sunflower; assay: Test C pre-/postemergence herbicide test; format: in vivo, Helianthus annuus; conditions: for Plant response rating (0 = no effect, 100 = complete control), Sunflower: 62 g ai/ha; for Plant response rating (0 = no effect, 100 = complete control), Sunflower / Plant response rating, Sunflower: preemergence; for Plant response rating, Sunflower: 125 g ai/ha, scale 0 (no effect) to 100 (complete control), visual, 12 to 14 days; for Sunflower plant response rating: Preemergence, 500 g ai/ha, scale 0 to 100, 0 no effect, 100 complete control
Outline: as §1

Surinam grass = assay: Test C pre-/postemergence herbicide test; format: in vivo, Urochloa decumbens; conditions: for Surinam Grass plant response rating: 500 g ai/ha
Outline: as §1

corn = assay: Test C pre-/postemergence herbicide test; format: in vivo, Zea mays; conditions: for Corn plant response rating: 500 g ai/ha
Outline: as §1

morningglory = assay: Test A pre-/postemergence herbicide test; format: in vivo, Ipomoea spp.
Outline: (§2)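 Both application timings were run together: directed soil spray over freshly planted seeds in sandy loam, and runoff spray onto 2–10 cm seedlings. Evaluation after ~10 days in greenhouse used a 0–100 visual scale versus untreated controls.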

velvetleaf = assay: Test C pre-/postemergence herbicide test; format: in vivo, Abutilon theophrasti; conditions: for Velvetleaf plant response rating: 500 g ai/ha
Outline: as §1

eastern black nightshade = assay: Test C pre-/postemergence herbicide test; format: in vivo, Solanum ptycanthum; conditions: for Plant response rating (0 = no effect, 100 = complete control), Nightshade: 62 g ai/ha; for Plant response rating (0 = no effect, 100 = complete control), Nightshade / Plant response rating, Nightshade: preemergence; for Plant response rating, Nightshade: 125 g ai/ha, scale 0 (no effect) to 100 (complete control), visual, 12 to 14 days; for Nightshade plant response rating: Preemergence, 500 g ai/ha, scale 0 to 100, 0 no effect, 100 complete control
Outline: as §1

barnyardgrass = assay: Test A pre-/postemergence herbicide test; format: in vivo, Echinochloa crus-galli
Outline: as §2

woolly cupgrass = assay: Test C pre-/postemergence herbicide test; format: in vivo, Eriochloa villosa; conditions: for Cupgrass, Woolly plant response rating: 500 g ai/ha
Outline: as §1

[2] = tested on: smallflower umbrella sedge; assay: Test C flooded paddy test; format: in vivo, Cyperus difformis; conditions: for Plant response rating, Sedge, Umbrella: 500 g ai/ha, visual rating after 12 to 14 days
[3] = 125 g ai/ha, scale 0 (no effect) to 100 (complete control), visual, 12 to 14 days, preemergence
[4] = Postemergence, 250 g ai/ha, scale 0 to 100, 0 no effect, 100 complete control
[5] = Preemergence, scale 0 to 100, 0 no effect, 100 complete control
[6] = postemergence, 125 g ai/ha, scale 0 to 100
[7] = postemergence, 62 g ai/ha, scale 0 to 100
[8] = 250 g ai/ha, scale 0 to 100 (0 no effect, 100 complete control), visual, 12 to 14 days, preemergence
[9] = Postemergence, 500 g ai/ha, 0 to 100 scale, 0 no effect, 100 complete control
[10] = Postemergence, 2000 g ai/ha, 0 to 100 scale, 0 no effect, 100 complete control
[11] = Preemergence, 500 g ai/ha, visual rating, 0 to 100 scale (0 no effect, 100 complete control)
[12] = Preemergence, 2000 g ai/ha, 0 to 100 scale, 0 no effect, 100 complete control
[13] = 62 g ai/ha, scale 0 to 100 (0 no effect, 100 complete control)
[14] = 125 g ai/ha, scale of 0 to 100, 0 is no effect, 100 is complete control
[15] = 250 g ai/ha, scale of 0 to 100, 0 is no effect, 100 is complete control
[16] = scale 0 to 100 (0 no effect, 100 complete control)
[17] = Preemergence, 2000 g ai/ha, visual rating, 0 to 100 scale (0 no effect, 100 complete control)
[18] = Postemergence, 250 g ai/ha, 0 to 100 scale, 0 no effect, 100 complete control
[19] = Postemergence, 1000 g ai/ha, 0 to 100 scale, 0 no effect, 100 complete control
[20] = Preemergence, 1000 g ai/ha, visual rating, 0 to 100 scale (0 no effect, 100 complete control)
[21] = preemergence, 250 g ai/ha, visual injury, 0 to 100 scale (0 no effect, 100 complete control)

Compound: CCOC(=O)c1cc(NC(=O)c2cc(C(C)(C)C)nn2CC)ccc1OC [Compound 96]
- Plant response rating (0 = no effect, 100 = complete control), Johnsongrass (johnsongrass; 62 g ai/ha, preemergence): 40
- Plant response rating, Johnsongrass (johnsongrass; [3]): 60
- Johnsongrass plant response rating (johnsongrass; Postemergence, scale 0 to 100): 50
- Plant response rating, Johnsongrass (johnsongrass; [4]): 50
- Johnsongrass plant response rating (johnsongrass; [5]): 95
- Plant response rating, Johnsongrass (johnsongrass; [6]): 50
- Plant response rating, Johnsongrass (johnsongrass; [7]): 0
- Plant response rating (0 = no effect, 100 = complete control), Sunflower [1]: 0
- Plant response rating, Sunflower [1]: 0
- Sunflower plant response rating [1]: 35
- Plant response rating (0 = no effect, 100 = complete control), Surinam Grass (Surinam grass; 62 g ai/ha, preemergence): 0
- Plant response rating, Surinam Grass (Surinam grass; [3]): 10
- Surinam Grass plant response rating (Surinam grass; Postemergence, scale 0 to 100): 60
- Plant response rating, Surinam Grass (Surinam grass; [4]): 40
- Surinam Grass plant response rating (Surinam grass; [5]): 65
- Plant response rating, Surinam Grass (Surinam grass; [6]): 40
- Plant response rating, Surinam Grass (Surinam grass; [7]): 0
- Plant response rating (0 = no effect, 100 = complete control), Corn (corn; 62 g ai/ha, preemergence): 15
- Plant response rating, Corn (corn; [3]): 15
- Plant response rating, Corn (corn; [8]): 30
- Corn plant response rating (corn; Postemergence, scale 0 to 100): 45
- Plant response rating, Corn (corn; [4]): 35
- Corn plant response rating (corn; [5]): 40
- Plant response rating, Corn (corn; [6]): 30
- Plant response rating, Corn (corn; [7]): 30
- Morningglory plant response rating (morningglory; [9]): 10
- Plant response rating, Morningglory (morningglory; [10]): 15
- Morningglory plant response rating (morningglory; [11]): 25
- Morningglory plant response rating (morningglory; [12]): 70
- Plant response rating, Velvetleaf (velvetleaf; [3]): 50
- Velvetleaf plant response rating (velvetleaf; Postemergence, scale 0 to 100): 95
- Plant response rating, Velvetleaf (velvetleaf; [4]): 70
- Velvetleaf plant response rating (velvetleaf; [5]): 100
- Plant response rating, Velvetleaf (velvetleaf; [6]): 70
- Plant response rating, Velvetleaf (velvetleaf; [7]): 40
- Plant response rating (0 = no effect, 100 = complete control), Nightshade (eastern black nightshade): 90
- Plant response rating, Nightshade (eastern black nightshade): 95
- Nightshade plant response rating (eastern black nightshade): 100
- Barnyardgrass plant response rating (barnyardgrass; [9]): 60
- Plant response rating, Barnyardgrass (barnyardgrass; [10]): 80
- Barnyardgrass plant response rating (barnyardgrass; [11]): 70
- Barnyardgrass plant response rating (barnyardgrass; [12]): 90
- Plant response rating (0 = no effect, 100 = complete control), Cupgrass, Woolly (woolly cupgrass; 62 g ai/ha, preemergence): 5
- Plant response rating, Cupgrass, Woolly (woolly cupgrass; [3]): 10
- Plant response rating, Cupgrass, Woolly (woolly cupgrass; [8]): 20
- Cupgrass, Woolly plant response rating (woolly cupgrass; Postemergence, scale 0 to 100): 50
- Plant response rating, Cupgrass, Woolly (woolly cupgrass; [4]): 30
- Cupgrass, Woolly plant response rating (woolly cupgrass; [5]): 70
- Plant response rating, Cupgrass, Woolly (woolly cupgrass; [6]): 30
- Plant response rating, Cupgrass, Woolly (woolly cupgrass; [7]): 5
- Sedge, Umbrella plant response rating [2, 13]: 90
- Sedge, Umbrella plant response rating [2, 14]: 90
- Sedge, Umbrella plant response rating [2, 15]: 90
- Plant response rating, Sedge, Umbrella [2, 16]: 95

Compound: CC(=NO)c1cccc(NC(=O)c2cc(C(C)(C)C)nn2CCF)c1 [Compound 115]
- Plant response rating (0 = no effect, 100 = complete control), Johnsongrass (johnsongrass; 62 g ai/ha, preemergence): 70
- Plant response rating, Johnsongrass (johnsongrass; [3]): 100
- Johnsongrass plant response rating (johnsongrass; Postemergence, scale 0 to 100): 100
- Plant response rating, Johnsongrass (johnsongrass; [4]): 80
- Johnsongrass plant response rating (johnsongrass; [5]): 100
- Plant response rating, Johnsongrass (johnsongrass; [6]): 50
- Plant response rating, Johnsongrass (johnsongrass; [7]): 30
- Plant response rating (0 = no effect, 100 = complete control), Sunflower [1]: 0
- Sunflower plant response rating [1]: 10
- Plant response rating (0 = no effect, 100 = complete control), Surinam Grass (Surinam grass; 62 g ai/ha, preemergence): 20
- Plant response rating, Surinam Grass (Surinam grass; [3]): 40
- Surinam Grass plant response rating (Surinam grass; Postemergence, scale 0 to 100): 60
- Plant response rating, Surinam Grass (Surinam grass; [4]): 60
- Surinam Grass plant response rating (Surinam grass; [5]): 90
- Plant response rating, Surinam Grass (Surinam grass; [6]): 40
- Plant response rating, Surinam Grass (Surinam grass; [7]): 30
- Plant response rating (0 = no effect, 100 = complete control), Corn (corn; 62 g ai/ha, preemergence): 10
- Plant response rating, Corn (corn; [3]): 10
- Plant response rating, Corn (corn; [8]): 20
- Corn plant response rating (corn; Postemergence, scale 0 to 100): 40
- Corn plant response rating (corn; [5]): 30
- Plant response rating, Corn (corn; [6]): 40
- Plant response rating, Corn (corn; [7]): 40
- Morningglory plant response rating (morningglory; [9]): 35
- Plant response rating, Morningglory (morningglory; [10]): 30
- Morningglory plant response rating (morningglory; [11]): 70
- Morningglory plant response rating (morningglory; [17]): 90
- Plant response rating, Velvetleaf (velvetleaf; [3]): 100
- Velvetleaf plant response rating (velvetleaf; Postemergence, scale 0 to 100): 90
- Plant response rating, Velvetleaf (velvetleaf; [4]): 90
- Velvetleaf plant response rating (velvetleaf; [5]): 100
- Plant response rating, Velvetleaf (velvetleaf; [6]): 90
- Plant response rating, Velvetleaf (velvetleaf; [7]): 60
- Plant response rating (0 = no effect, 100 = complete control), Nightshade (eastern black nightshade): 100
- Plant response rating, Nightshade (eastern black nightshade): 100
- Nightshade plant response rating (eastern black nightshade): 100
- Barnyardgrass plant response rating (barnyardgrass; [9]): 70
- Plant response rating, Barnyardgrass (barnyardgrass; [10]): 80
- Barnyardgrass plant response rating (barnyardgrass; [11]): 70
- Barnyardgrass plant response rating (barnyardgrass; [17]): 85
- Plant response rating (0 = no effect, 100 = complete control), Cupgrass, Woolly (woolly cupgrass; 62 g ai/ha, preemergence): 20
- Plant response rating, Cupgrass, Woolly (woolly cupgrass; [3]): 30
- Plant response rating, Cupgrass, Woolly (woolly cupgrass; [8]): 80
- Cupgrass, Woolly plant response rating (woolly cupgrass; Postemergence, scale 0 to 100): 70
- Plant response rating, Cupgrass, Woolly (woolly cupgrass; [4]): 70
- Cupgrass, Woolly plant response rating (woolly cupgrass; [5]): 90
- Plant response rating, Cupgrass, Woolly (woolly cupgrass; [6]): 70
- Plant response rating, Cupgrass, Woolly (woolly cupgrass; [7]): 50
- Sedge, Umbrella plant response rating [2, 13]: 80
- Sedge, Umbrella plant response rating [2, 14]: 85
- Sedge, Umbrella plant response rating [2, 15]: 90
- Plant response rating, Sedge, Umbrella [2, 16]: 95

Compound: CCn1nc(C(C)(C)C)cc1C(=O)Nc1cccc(SC)c1 [Compound 131]
- Plant response rating (0 = no effect, 100 = complete control), Johnsongrass (johnsongrass; 62 g ai/ha, preemergence): 15
- Plant response rating, Johnsongrass (johnsongrass; [3]): 40
- Plant response rating (0 = no effect, 100 = complete control), Sunflower [1]: 0
- Plant response rating, Sunflower [1]: 0
- Plant response rating (0 = no effect, 100 = complete control), Surinam Grass (Surinam grass; 62 g ai/ha, preemergence): 0
- Plant response rating, Surinam Grass (Surinam grass; [3]): 0
- Plant response rating (0 = no effect, 100 = complete control), Corn (corn; 62 g ai/ha, preemergence): 0
- Plant response rating, Corn (corn; [3]): 0
- Plant response rating, Corn (corn; [8]): 0
- Morningglory plant response rating (morningglory; [18]): 15
- Plant response rating, Morningglory (morningglory; [19]): 15
- Morningglory plant response rating (morningglory; [20]): 35
- Morningglory plant response rating (morningglory; [21]): 15
- Plant response rating, Velvetleaf (velvetleaf; [3]): 15
- Plant response rating (0 = no effect, 100 = complete control), Nightshade (eastern black nightshade): 55
- Plant response rating, Nightshade (eastern black nightshade): 95
- Barnyardgrass plant response rating (barnyardgrass; [18]): 25
- Plant response rating, Barnyardgrass (barnyardgrass; [19]): 60
- Barnyardgrass plant response rating (barnyardgrass; [20]): 50
- Barnyardgrass plant response rating (barnyardgrass; [21]): 45
- Plant response rating (0 = no effect, 100 = complete control), Cupgrass, Woolly (woolly cupgrass; 62 g ai/ha, preemergence): 0
- Plant response rating, Cupgrass, Woolly (woolly cupgrass; [3]): 0
- Plant response rating, Cupgrass, Woolly (woolly cupgrass; [8]): 15
- Sedge, Umbrella plant response rating [2, 13]: 55
- Sedge, Umbrella plant response rating ([2]; 125 g ai/ha, scale 0 to 100 (0 no effect, 100 complete control)): 65
- Sedge, Umbrella plant response rating [2, 15]: 70
- Plant response rating, Sedge, Umbrella [2, 16]: 80
